Reference: ChEMBL document CHEMBL1201862, “PubChem BioAssay data set” (2004)
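Values below derive from 48-hour exposures of cells grown in 96-well plates, with endpoints linearly interpolated between the two concentrations bracketing the appropriate inhibition level. The concentration for 50% growth inhibition is given as GI50.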 Active and inactive are the calls of the source. No stated cut-off is given here; in the data, active = GI50 up to about 1.1 µM and inactive = higher.

Legend:
Experiment in all cases: NCI anticancer screen, dose series, 48 h
[1] = tested on: SF-268
[2] = tested on: ACHN
[3] = tested on: KM12
[4] = tested on: OVCAR-3
[5] = tested on: SW-620
[6] = tested on: K562
[7] = tested on: U-251
[8] = tested on: EKVX
[9] = tested on: HCT-116
[10] = tested on: SN12C
[11] = tested on: HT-29
[12] = tested on: HOP-62
[13] = tested on: HOP-92
[14] = tested on: OVCAR-4
[15] = tested on: NCI-H460
[16] = tested on: KM-20L2
[17] = tested on: UACC-257
[18] = tested on: RXF 393
[19] = tested on: CAKI-1
[20] = tested on: CCRF-CEM
[21] = tested on: A498
[22] = tested on: DMS-273
[23] = tested on: Malme-3M
[24] = tested on: SF-539
[25] = tested on: M19-MEL
[26] = tested on: 786-0
[27] = tested on: OVCAR-5
[28] = tested on: SK-MEL-5
[29] = tested on: SR
[30] = tested on: LOX IMVI
[31] = tested on: SK-MEL-28
[32] = tested on: M14
[33] = tested on: SF-295
[34] = tested on: OVCAR-8
[35] = tested on: A549
[36] = tested on: DLD-1
[37] = tested on: LXFL 529
[38] = tested on: MOLT-4
[39] = tested on: IGROV-1
[40] = tested on: HOP-18
[41] = tested on: NCI-H522
[42] = tested on: SNB-78
[43] = tested on: XF498
[44] = tested on: DMS-114
[45] = tested on: SK-OV-3
[46] = tested on: NCI-H23
[47] = tested on: HCT-15
[48] = tested on: UO-31
[49] = tested on: UACC-62
[50] = tested on: SK-MEL-2
[51] = tested on: RPMI-8226
[52] = tested on: SNB-19
[53] = tested on: COLO 205
[54] = tested on: HL-60
[55] = tested on: TK-10
[56] = tested on: HCC 2998
[57] = tested on: SNB-75

Cc1ccc2nc(N)[nH]c(=O)c2c1Sc1ccncc1
GI50 [1]: 10.5 µM (inactive) | GI50 [2]: 7.35 µM (inactive) | GI50 [3]: > 51.6 µM (inactive) | GI50 [4]: > 69.2 µM (inactive) | GI50 [5]: > 100 µM (inactive) | GI50 [6]: 15.8 µM (inactive) | GI50 [7]: > 51.1 µM (inactive) | GI50 [8]: 49.8 µM (inactive) | GI50 [9]: 15.5 µM (inactive) | GI50 [10]: 17.5 µM (inactive) | GI50 [11]: > 100 µM (inactive) | GI50 [12]: 5.11 µM (inactive) | GI50 [13]: 25.9 µM (inactive) | GI50 [14]: 78.2 µM (inactive) | GI50 [15]: 5.28 µM (inactive) | GI50 [16]: 10 µM (inactive) | GI50 [17]: > 100 µM (inactive) | GI50 [18]: 55.8 µM (inactive) | GI50 [19]: 31.6 µM (inactive) | GI50 [20]: 5.05 µM (inactive) | GI50 [21]: > 78.9 µM (inactive) | GI50 [22]: 37.2 µM (inactive) | GI50 [23]: > 65.2 µM (inactive) | GI50 [24]: 4.78 µM (inactive) | GI50 [25]: > 76 µM (inactive) | GI50 [26]: 12.2 µM (inactive) | GI50 [27]: 91.2 µM (inactive) | GI50 [28]: 21.2 µM (inactive) | GI50 [29]: 5.07 µM (inactive) | GI50 [30]: 11.2 µM (inactive) | GI50 [31]: > 92.3 µM (inactive) | GI50 [32]: 8.63 µM (inactive) | GI50 [33]: 8.07 µM (inactive) | GI50 [34]: > 31.1 µM (inactive) | GI50 [35]: 6.73 µM (inactive) | GI50 [36]: > 100 µM (inactive) | GI50 [37]: > 59.7 µM (inactive) | GI50 [38]: 6.28 µM (inactive) | GI50 [39]: > 71.6 µM (inactive) | GI50 [40]: > 100 µM (inactive) | GI50 [41]: 17.8 µM (inactive) | GI50 [42]: > 100 µM (inactive) | GI50 [43]: 22.8 µM (inactive) | GI50 [44]: 12.6 µM (inactive) | GI50 [45]: > 30.6 µM (inactive) | GI50 [46]: 60.3 µM (inactive) | GI50 [47]: > 100 µM | GI50 [48]: 64.1 µM (inactive) | GI50 [49]: 7.4 µM (inactive) | GI50 [50]: > 100 µM (inactive) | GI50 [51]: 23.3 µM (inactive) | GI50 [52]: > 100 µM (inactive) | GI50 [53]: > 92.9 µM (inactive) | GI50 [54]: 10.9 µM (inactive) | GI50 [55]: > 100 µM (inactive) | GI50 [56]: 1.36 µM (inactive) | GI50 [57]: > 78.9 µM (inactive)
